The results in this text go back to patent US20140288069A1, “AMINO-SUBSTITUTED IMIDAZOPYRIDAZINES AS MKNK1 KINASE INHIBITORS” (Bayer Intellectual Property GmbH, priority 2011, published 2014).

The term IC50 denotes the concentration that inhibits the measured activity by half. Lower therefore signals inhibition by little substance.

T1 sequence (Q9BUB5 1-424 isoform Q9BUB5-2 T344D): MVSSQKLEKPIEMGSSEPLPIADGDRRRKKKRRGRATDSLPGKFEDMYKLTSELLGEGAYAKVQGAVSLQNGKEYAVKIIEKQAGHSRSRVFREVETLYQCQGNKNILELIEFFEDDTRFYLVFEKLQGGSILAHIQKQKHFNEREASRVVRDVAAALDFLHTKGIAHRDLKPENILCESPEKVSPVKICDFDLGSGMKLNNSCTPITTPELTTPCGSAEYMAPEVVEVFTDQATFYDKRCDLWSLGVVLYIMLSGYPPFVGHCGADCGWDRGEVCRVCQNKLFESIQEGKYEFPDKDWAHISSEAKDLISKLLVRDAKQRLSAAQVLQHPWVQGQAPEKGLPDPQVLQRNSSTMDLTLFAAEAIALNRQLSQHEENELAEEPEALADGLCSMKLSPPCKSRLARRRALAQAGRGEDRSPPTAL

The first assay has as its target T1, human full-length MKNK1 (Homo sapiens, UniProt Q9BUB5, T385D).
T1 construct: GST (N); purchased Carna Biosciences 02-145; host or cells: insect cells (baculovirus)
Put plainly: MKNK1 kinase high ATP assay (TR-FRET-based).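 Note: biotinylated peptide phosphorylation read out via Eu-chelate to streptavidin-XL665 energy transfer using anti-phospho-S6 (Ser236) antibody, 30 min reaction at 22 °C with 0.06 µM substrate.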 Conditions: final ATP 2 mM, 15 min pre-incubation with MKNK1, GST-MKNK1 (T344D). It is filed as biochemical. (TR-FRET usually uses a lanthanide donor and a delayed reading to cut background.)
From the text: A recombinant fusion protein of Glutathione-S-Transferase (GST, N-terminally) and human full-length MKNK1 (amino acids 1-424 and T344D of accession number BAA 19885.1), expressed in insect cells using baculovirus expression system and purified via glutathione sepharose affinity chromatography, was purchased from Carna Biosciences (product no 02-145) and used as enzyme. As substrate for the kinase reaction the biotinylated peptide biotin-Ahx-[sequence] (C-terminus in amide form) was used, which can be purchased e.g. from the company Biosyntan (Berlin-Buch, Germany).
For the assay 50 nl nL of a 100 fold concentrated solution of the test compound in DMSO was pipetted into a black low volume 384 well microtiter plate (Greiner Bio-One, Frickenhausen, Germany), 2 μL of a solution of MKNK1 in aqueous assay buffer [50 mM HEPES pH 7.5, 5 mM magnesium chloride, 1.0 mM dithiothreitol, 0.005% (v/v) Nonidet-P40 (Sigma)] was added and the mixture was incubated for 15 min at 22° C. to allow pre-binding of the test compounds to the enzyme before the start of the kinase reaction. Then the kinase reaction was started by the addition of 3 μL of a solution of adenosine-tri-phosphate (ATP, 3.3 mM=>final conc. in the 5 μL assay volume is 2 mM) and substrate (0.1 μM=>final conc. in the 5 μL assay volume is 0.06 μM) in assay buffer and the resulting mixture was incubated for a reaction time of 30 min at 22° C. The concentration of MKNK1 was adjusted depending of the activity of the enzyme lot and was chosen appropriate to have the assay in the linear range, typical concentrations were in the range of 0.003 μg/mL. The reaction was stopped by the addition of 5 μL of a solution of TR-FRET detection reagents (5 nM streptavidine-XL665 [Cisbio Bioassays, Codolet, France] and 1 nM anti-ribosomal protein S6 (pSer236)-antibody from Invitrogen [#44921G] and 1 nM LANCE EU-W1024 labeled ProteinG [Perkin-Elmer, product no. 4D0071]) in an aqueous EDTA-solution (100 mM EDTA, 0.1% (w/v) bovine serum albumin in 50 mM HEPES pH 7.5).
The resulting mixture was incubated for 1 h at 22° C. to allow the formation of complex between the phosphorylated biotinylated peptide and the detection reagents. Subsequently the amount of phosphorylated substrate was evaluated by measurement of the resonance energy transfer from the Eu-chelate to the streptavidine-XL. Therefore, the fluorescence emissions at 620 nm and 665 nm after excitation at 350 nm were measured in a TR-FRET reader, e.g. a Rubystar (BMG Labtechnologies, Offenburg, Germany) or a Viewlux (Perkin-Elmer). The ratio of the emissions at 665 nm and at 622 nm was taken as the measure for the amount of phosphorylated substrate.
`COc1nccc2oc(-c3cnc4ccc(NCC(O)C5CC5)nn34)cc12` (centres unmarked) [Example 27, 1-Cyclopropyl-2-{[3-(4-methoxyfuro[3,2-c]pyridin-2-yl)imidazo[1,2-b]pyridazin-6-yl]amino}ethanol]: the IC50 was determined as 4 nM.

On to `c1ccc2oc(-c3cnc4ccc(NCc5ccncc5)nn34)cc2c1` [Example R8, 3-(1-Benzofuran-2-yl)-N-(pyridin-4-ylmethyl)imidazo[1,2-b]pyridazin-6-amine, reference compound], for which the IC50 was determined as 34 nM.

`COc1nccc2oc(-c3cnc4ccc(NC[C@H](O)c5ccccc5)nn34)cc12` [Example 28, (1R)-2-{[3-(4-Methoxyfuro[3,2-c]pyridin-2-yl)imidazo[1,2-b]pyridazin-6-yl]amino}-1-phenylethanol] displayed an IC50 of 5 nM.

In the case of `CC(C)(C)C(O)CNc1ccc2ncc(-c3cc4ccccc4o3)n2n1` (centres unmarked) [Example 34, 1-{[3-(1-Benzofuran-2-yl)imidazo[1,2-b]pyridazin-6-yl]amino}-3,3-dimethylbutan-2-ol], the IC50 is 21 nM.

As for `OC(CNc1ccc2ncc(-c3cc4ccccc4o3)n2n1)CN1CCOCC1` (centres unmarked) [Example 38, 1-{[3-(1-Benzofuran-2-yl)imidazo[1,2-b]pyridazin-6-yl]amino}-3-(morpholin-4-yl)propan-2-ol], the IC50 amounted to 32 nM.

In the case of `OC(CNc1ccc2ncc(-c3cc4ccccc4o3)n2n1)C1CCCCC1` (centres unmarked) [Example 37, 2-{[3-(1-Benzofuran-2-yl)imidazo[1,2-b]pyridazin-6-yl]amino}-1-cyclohexylethanol], inhibition was half-maximal at 29 nM (IC50).

Compound `O=C1CCCN1CC(O)CNc1ccc2ncc(-c3cc4ccccc4o3)n2n1` (centres unmarked) [Example 36, 1-(3-{[3-(1-Benzofuran-2-yl)imidazo[1,2-b]pyridazin-6-yl]amino}-2-hydroxy-propyl)pyrrolidin-2-one] came in with an IC50 of 26 nM.

`OC(CNc1ccc2ncc(-c3cc4ccccc4o3)n2n1)CN1CCCC1` (centres unmarked) [Example 40, 1-{[3-(1-Benzofuran-2-yl)imidazo[1,2-b]pyridazin-6-yl]amino}-3-(pyrrolidin-1-yl)propan-2-ol]: the IC50 turned out to be 38 nM.

As to `OC(CNc1ccc2ncc(-c3cc4ccccc4o3)n2n1)c1ccc(F)cc1` (centres unmarked) [Example 41, 2-{[3-(1-Benzofuran-2-yl)imidazo[1,2-b]pyridazin-6-yl]amino}-1-(4-fluoro-phenyl)ethanol], half-maximal inhibition (IC50) required 41 nM.

In the case of `OC(CNc1ccc2ncc(-c3cc4ccccc4o3)n2n1)C1CC1` (single isomer, unassigned; (+)) [Example 23, (+)-2-{[3-(1-Benzofuran-2-yl)imidazo[1,2-b]pyridazin-6-yl]amino}-1-cyclopropylethanol], the IC50 worked out at 27 nM.

`OC(CNc1ccc2ncc(-c3cc4ccccc4o3)n2n1)C1CCOCC1` (single isomer, unassigned; (-)) [Example 26, (−)-2-{[3-(1-Benzofuran-2-yl)imidazo[1,2-b]pyridazin-6-yl]amino}-1-(tetrahydro-2H-pyran-4-yl)]: inhibition was half-maximal at 2 nM (IC50).

Take `c1cc(Nc2ccc3ncc(-c4ccncc4)n3n2)ccn1` [Example R4, N,3-Di(pyridin-4-yl)-imidazo-[1,2-b]-pyridazin-6-amine, reference compound]: the IC50 stood at 810 nM.

The compound `OC(CNc1ccc2ncc(-c3cc4ccccc4o3)n2n1)CN1CCCCC1` (centres unmarked) [Example 39, 1-{[3-(1-Benzofuran-2-yl)imidazo[1,2-b]pyridazin-6-yl]amino}-3-(piperidin-1-yl)propan-2-ol] had an IC50 of 37 nM.

Regarding `COc1nccc2oc(-c3cnc4ccc(NC[C@@H](O)c5ccccc5)nn34)cc12` [Example 35, (1S)-2-{[3-(4-Methoxyfuro[3,2-c]pyridin-2-yl)imidazo[1,2-b]pyridazin-6-yl]-amino}-1-phenylethanol], the IC50 came to 25 nM.

For `OC(CNc1ccc2ncc(-c3cc4ccccc4o3)n2n1)C1CCOCC1` (single isomer, unassigned; (+)) [Example 25, (+)-2-{[3-(1-Benzofuran-2-yl)imidazo[1,2-b]pyridazin-6-yl]amino}-1-(tetrahydro-2H-pyran-4-yl)], the IC50 is 7 nM.

For the compound `c1cc(-c2cnc3ccc(NC4CCOCC4)nn23)ccn1` [Example R5, 3-(Pyridin-4-yl)-N-(tetra-hydro-2H-pyran-4-yl)-imidazo-[1,2-b]-pyridazin-6-amine, reference compound], the IC50 is 480 nM.

Turning to `OC(CNc1ccc2ncc(-c3cc4ccccc4o3)n2n1)C1CC1` (single isomer, unassigned; (-)) [Example 24, (−)-2-{[3-(1-Benzofuran-2-yl)imidazo[1,2-b]pyridazin-6-yl]amino}-1-cyclopropylethanol], the IC50 is 1 nM.

`c1ccc(CNc2ccc3ncc(-c4ccncc4)n3n2)cc1` [Example R1, N-Benzyl-3-(pyridin-4-yl)imidazo[1,2-b]pyridazin-6-amine, reference compound] returned an IC50 of 370 nM.

On to `CN(C)CCNc1ccc2ncc(-c3cc4ccccc4o3)n2n1` [Example R7, N′-[3-(1-Benzofuran-2-yl)imidazo[1,2-b]pyridazin-6-yl]-N,N-dimethylethane-1,2-diamine, reference compound], for which the IC50 came to 13 nM.

In turn, `CCC(O)CNc1ccc2ncc(-c3cc4ccccc4o3)n2n1` (centres unmarked) [Example 29, 1-{[3-(1-Benzofuran-2-yl)imidazo[1,2-b]pyridazin-6-yl]amino}butan-2-ol] displayed an IC50 of 6 nM.

`NCC(O)CNc1ccc2ncc(-c3cc4ccccc4o3)n2n1` (centres unmarked) [Example 31, 1-Amino-3-{[3-(1-benzofuran-2-yl)imidazo[1,2-b]pyridazin-6-yl]amino}propan-2-ol] returned a half-inhibitory concentration (IC50) of 8 nM.

With `c1ccc(CCNc2ccc3ncc(-c4cc5ccccc5o4)n3n2)nc1` [Example R6, 3-(1-Benzofuran-2-yl)-N-[2-(pyridin-2-yl)ethyl]imidazo[1,2-b]pyridazin-6-amine, reference compound], the IC50 is 250 nM.

Turning to `CCC(O)CNc1ccc2ncc(-c3cc4c(OC)nccc4o3)n2n1` (centres unmarked) [Example 30, 1-{[3-(4-Methoxyfuro[3,2-c]pyridin-2-yl)imidazo[1,2-b]pyridazin-6-yl]amino}butan-2-ol], half-maximal inhibition (IC50) required 6 nM.

In turn, `CC(C)C(O)CNc1ccc2ncc(-c3cc4ccccc4o3)n2n1` (centres unmarked) [Example 33, 1-{[3-(1-Benzofuran-2-yl)imidazo[1,2-b]pyridazin-6-yl]amino}-3-methylbutan-2-ol] came in with a half-maximal inhibitory concentration (IC50) of 21 nM.

`c1ccc(Nc2ccc3ncc(-c4ccncc4)n3n2)cc1` [Example R2, N-Phenyl-3-(pyridin-4-yl)imidazo-[1,2-b]-pyridazin-6-amine, reference compound] came in with an IC50 of 170 nM.

On to `COc1nccc2oc(-c3cnc4ccc(NCC(O)C5CCOCC5)nn34)cc12` (centres unmarked) [Example 32, 2-{[3-(4-Methoxyfuro[3,2-c]pyridin-2-yl)imidazo[1,2-b]pyridazin-6-yl]amino}-1-(tetrahydro-2H-pyran-4-yl)ethanol], for which the IC50 was found to be 18 nM.

For the next assay, the target named is T2, human full-lengt MKNK1 (Homo sapiens, UniProt Q9BUB5, T385D).
T2 construct: GST (N); purchased Carna Biosciences 02-145; host or cells: insect cells (baculovirus)
T2 sequence (Q9BUB5 1-424 isoform Q9BUB5-2 T344D): as above
In words: MKNK1 kinase assay (MKNK1 TR-FRET assay). It is filed as biochemical. Conditions: final ATP 10 μM, 15 min pre-incubation, GST-MKNK1 (T344D).
Method: MKNK1-inhibitory activity of compounds of the present invention was quantified employing the MKNK1 TR-FRET assay as described in the following paragraphs.
As substrate for the kinase reaction the biotinylated peptide biotin-Ahx-[sequence] (C-terminus in amide form) was used which can be purchased e.g. form the company Biosyntan (Berlin-Buch, Germany).
For the assay 50 mL of a 100 fold concentrated solution of the test compound in DMSO was pipetted into a black low volume 384 well microtiter plate (Greiner Bio-One, Frickenhausen, Germany), 2 μL of a solution of MKNK1 in aqueous assay buffer [50 mM HEPES pH 7.5, 5 mM magnesium chloride, 1.0 mM dithiothreitol, 0.005% (v/v) Nonidet-P40 (Sigma)] was added and the mixture was incubated for 15 min at 22° C. to allow pre-binding of the test compounds to the enzyme before the start of the kinase reaction. […] The concentration of MKNK1 was adjusted depending of the activity of the enzyme lot and was chosen appropriate to have the assay in the linear range, typical concentrations were in the range of 0.05 μg/ml. The reaction was stopped by the addition of 5 μL of a solution of TR-FRET detection reagents (5 nM streptavidine-XL665 [Cisbio Bioassays, Codalet, France] and 1 nM anti-ribosomal protein S6 (pSer236)-antibody from Invitrogen [#44921G] and 1 nM LANCE EU-W1024 labeled ProteinG [Perkin-Elmer, product no. 4D0071]) in an aqueous EDTA-solution (100 mM EDTA, 0.1% (w/v) bovine serum albumin in 50 mM HEPES pH 7.5).
The resulting mixture was incubated for 1 h at 22° C. to allow the formation of complex between the phosphorylated biotinylated peptide and the detection reagents. Subsequently the amount of phosphorylated substrate was evaluated by measurement of the resonance energy transfer from the Eu-chelate to the streptavidine-XL.
`OC[C@@H](O)CNc1ccc2ncc(-c3cc4ccccc4o3)n2n1` [Example 17, (2S)-3-{[3-(1-Benzofuran-2-yl)-imidazo-[1,2-b]-pyridazin-6-yl]amino}-propane-1,2-diol] displayed an IC50 of 13 nM.

On to `c1ccc2oc(-c3cnc4ccc(NCc5ccncc5)nn34)cc2c1` [Example R8, 3-(1-Benzofuran-2-yl)-N-(pyridin-4-ylmethyl)imidazo[1,2-b]pyridazin-6-amine, reference compound], for which half-maximal inhibition (IC50) was put at 23 nM.

Compound `OC[C@H](O)CNc1ccc2ncc(-c3cc4ccccc4o3)n2n1` [Example 16, (2R)-3-{[3-(1-Benzofuran-2-yl)imidazo[1,2-b]pyridazin-6-yl]amino}propane-1,2-diol] gave an IC50 of 4 nM.

`O[C@H](CNc1ccc2ncc(-c3cc4ccccc4o3)n2n1)c1ccccc1` [Example 19, (1S)-2-{[3-(1-Benzofuran-2-yl)imidazo[1,2-b]pyridazin-6-yl]amino}-1-phenylethanol] showed an IC50 of 22 nM.

For the compound `OC(CNc1ccc2ncc(-c3cc4ccccc4o3)n2n1)c1ccccn1` (centres unmarked) [Example 22, 2-{[3-(1-Benzofuran-2-yl)imidazo[1,2-b]pyridazin-6-yl]amino}-1-(pyridin-2-yl)ethanol], 5 nM corresponded to half-maximal inhibition (IC50).

As to `c1cc(Nc2ccc3ncc(-c4ccncc4)n3n2)ccn1` [Example R4, N,3-Di(pyridin-4-yl)-imidazo-[1,2-b]-pyridazin-6-amine, reference compound], the IC50 is 245 nM.

`OCCCNc1ccc2ncc(-c3cc4ccccc4o3)n2n1` [Example 14, 3-{[3-(1-Benzofuran-2-yl)imidazo[1,2-b]pyridazin-6-yl]amino}propan-1-ol] yielded an IC50 of 7 nM.

As for `c1cc(-c2cnc3ccc(NC4CCOCC4)nn23)ccn1` [Example R5, 3-(Pyridin-4-yl)-N-(tetra-hydro-2H-pyran-4-yl)-imidazo-[1,2-b]-pyridazin-6-amine, reference compound], the IC50 is 192 nM.

Take `OC(CCNc1ccc2ncc(-c3cc4ccccc4o3)n2n1)c1ccc(F)cc1` (centres unmarked) [Example 15, 3-{[3-(1-Benzofuran-2-yl)-imidazo-[1,2-b]-pyridazin-6-yl]-amino}-1-(4-fluoro-phenyl)-propan-1-ol]: the IC50 was 32 nM.

In turn, `c1ccc(CNc2ccc3ncc(-c4ccncc4)n3n2)cc1` [Example R1, N-Benzyl-3-(pyridin-4-yl)imidazo[1,2-b]pyridazin-6-amine, reference compound] had an IC50 of 181 nM.

The compound `CN(C)CCNc1ccc2ncc(-c3cc4ccccc4o3)n2n1` [Example R7, N′-[3-(1-Benzofuran-2-yl)imidazo[1,2-b]pyridazin-6-yl]-N,N-dimethylethane-1,2-diamine, reference compound] displayed an IC50 of 11 nM.

Compound `O[C@@H](CNc1ccc2ncc(-c3cc4ccccc4o3)n2n1)c1cccnc1` [Example 20, (1R)-2-{[3-(1-Benzofuran-2-yl)imidazo[1,2-b]pyridazin-6-yl]amino}-1-(pyridin-3-yl)ethanol] came in with an IC50 of 1 nM.

`c1ccc(CCNc2ccc3ncc(-c4cc5ccccc5o4)n3n2)nc1` [Example R6, 3-(1-Benzofuran-2-yl)-N-[2-(pyridin-2-yl)ethyl]imidazo[1,2-b]pyridazin-6-amine, reference compound] returned an IC50 of 17 nM.

Compound `OCCNc1ccc2ncc(-c3cc4ccccc4o3)n2n1` [Example 13, 2-{[3-(1-Benzofuran-2-yl)imidazo[1,2-b]pyridazin-6-yl]amino}ethanol] registered an IC50 of 6 nM.

`CC(O)(CNc1ccc2ncc(-c3cc4ccccc4o3)n2n1)c1ccccc1` (centres unmarked) [Example 21, 1-{[3-(1-Benzofuran-2-yl)imidazo[1,2-b]pyridazin-6-yl]amino}-2-phenylpropan-2-ol] had an IC50 of 60 nM.

`c1ccc(Nc2ccc3ncc(-c4ccncc4)n3n2)cc1` [Example R2, N-Phenyl-3-(pyridin-4-yl)imidazo-[1,2-b]-pyridazin-6-amine, reference compound] had an IC50 of 64 nM.

Regarding `O[C@@H](CNc1ccc2ncc(-c3cc4ccccc4o3)n2n1)c1ccccc1` [Example 18, (1R)-2-{[3-(1-Benzofuran-2-yl)imidazo[1,2-b]pyridazin-6-yl]amino}-1-phenylethanol], the IC50 was determined as 1 nM.

Compound `CC[C@@H](CO)Nc1ccc2ncc(-c3cc4ccccc4o3)n2n1` [Example 4, (2S)-2-{[3-(1-Benzofuran-2-yl)-imidazo[1,2-b]-pyridazin-6-yl]-amino}butan-1-ol] displayed a half-maximal inhibitory concentration (IC50) of 15 nM.
